These results are taken from ChEMBL document CHEMBL4428041, “Identification and SAR Evaluation of Hemozoin-Inhibiting Benzamides Active against Plasmodium falciparum” (J Med Chem, 2016).

What is called IC50 is the concentration that inhibits the measured activity by half. Low values mean greater potency, high ones weaker potency.

The test system of the assay is Hemozoin. Briefly: Inhibition of beta-hematin.

The compound `CCN(CC)Cc1cc(Nc2ccnc3cc(Cl)ccc23)ccc1O` [AMODIAQUINE] registered an IC50 of 21 µM.
